Measured values as given in US11767310B2, “Nicotinamide RIPK1 inhibitors” (AbbVie Inc., priority 2021, dated 2023).
Where two headings read alike, the source gives them in different places.

Legend:
Assay in all cases: Kinase binding screen
Details in all cases: read-out: Percent Control at 100 nM Compound Concentration
[1] = biological target: PIK3CA(H1047L) (Homo sapiens (Human), UniProt P42336, H1047L)
[2] = biological target: PRKG1 (Homo sapiens (Human), UniProt Q13976)
[3] = biological target: S6K1 (Homo sapiens (Human), UniProt P23443)
[4] = biological target: PIK3CD (Homo sapiens (Human), UniProt O00329)
[5] = biological target: AKT3 (Homo sapiens (Human), UniProt Q9Y243)
Sequence of AKT3 (Q9Y243 whole entry): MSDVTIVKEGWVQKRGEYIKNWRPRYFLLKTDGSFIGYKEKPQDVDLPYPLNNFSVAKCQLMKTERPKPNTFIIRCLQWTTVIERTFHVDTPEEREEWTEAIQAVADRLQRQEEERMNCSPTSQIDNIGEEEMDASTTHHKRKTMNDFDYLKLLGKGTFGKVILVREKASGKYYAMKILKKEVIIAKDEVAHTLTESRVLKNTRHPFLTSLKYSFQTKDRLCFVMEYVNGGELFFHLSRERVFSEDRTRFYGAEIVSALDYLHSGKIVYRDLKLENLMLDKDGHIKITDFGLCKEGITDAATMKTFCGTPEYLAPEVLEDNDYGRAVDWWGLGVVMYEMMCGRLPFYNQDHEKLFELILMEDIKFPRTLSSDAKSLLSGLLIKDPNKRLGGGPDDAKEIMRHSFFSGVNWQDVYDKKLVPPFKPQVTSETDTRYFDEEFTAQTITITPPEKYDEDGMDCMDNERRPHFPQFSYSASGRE

[6] = biological target: SGK2 (Homo sapiens (Human), UniProt Q9HBY8)
[7] = biological target: PRKX (Homo sapiens (Human), UniProt P51817)
Sequence of PRKX (P51817 whole entry): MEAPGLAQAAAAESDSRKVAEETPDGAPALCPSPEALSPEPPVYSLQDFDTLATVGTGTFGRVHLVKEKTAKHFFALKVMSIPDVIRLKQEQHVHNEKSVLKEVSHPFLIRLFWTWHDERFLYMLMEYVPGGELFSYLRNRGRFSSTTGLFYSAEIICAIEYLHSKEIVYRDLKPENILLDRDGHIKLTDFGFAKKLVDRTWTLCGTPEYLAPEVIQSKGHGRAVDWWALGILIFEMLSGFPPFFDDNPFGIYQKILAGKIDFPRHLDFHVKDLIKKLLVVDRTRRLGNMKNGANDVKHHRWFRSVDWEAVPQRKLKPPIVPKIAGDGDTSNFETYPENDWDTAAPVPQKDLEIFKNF

[8] = biological target: p38-beta (Homo sapiens (Human), UniProt Q15759)
Sequence of p38-beta (Q15759 whole entry): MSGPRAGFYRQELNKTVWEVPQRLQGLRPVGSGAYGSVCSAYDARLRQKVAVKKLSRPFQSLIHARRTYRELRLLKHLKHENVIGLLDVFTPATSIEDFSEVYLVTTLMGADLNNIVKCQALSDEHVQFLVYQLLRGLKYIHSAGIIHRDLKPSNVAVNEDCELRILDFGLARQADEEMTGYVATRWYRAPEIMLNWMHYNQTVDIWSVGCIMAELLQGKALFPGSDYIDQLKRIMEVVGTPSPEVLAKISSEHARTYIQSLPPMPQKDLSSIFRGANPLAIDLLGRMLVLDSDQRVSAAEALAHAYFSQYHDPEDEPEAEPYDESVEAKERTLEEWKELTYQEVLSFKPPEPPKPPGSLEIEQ

[9] = biological target: ZAP70 (Homo sapiens (Human), UniProt P43403)
[10] = biological target: EIF2AK1 (Homo sapiens (Human), UniProt Q9BQI3)
Sequence of EIF2AK1 (Q9BQI3 whole entry): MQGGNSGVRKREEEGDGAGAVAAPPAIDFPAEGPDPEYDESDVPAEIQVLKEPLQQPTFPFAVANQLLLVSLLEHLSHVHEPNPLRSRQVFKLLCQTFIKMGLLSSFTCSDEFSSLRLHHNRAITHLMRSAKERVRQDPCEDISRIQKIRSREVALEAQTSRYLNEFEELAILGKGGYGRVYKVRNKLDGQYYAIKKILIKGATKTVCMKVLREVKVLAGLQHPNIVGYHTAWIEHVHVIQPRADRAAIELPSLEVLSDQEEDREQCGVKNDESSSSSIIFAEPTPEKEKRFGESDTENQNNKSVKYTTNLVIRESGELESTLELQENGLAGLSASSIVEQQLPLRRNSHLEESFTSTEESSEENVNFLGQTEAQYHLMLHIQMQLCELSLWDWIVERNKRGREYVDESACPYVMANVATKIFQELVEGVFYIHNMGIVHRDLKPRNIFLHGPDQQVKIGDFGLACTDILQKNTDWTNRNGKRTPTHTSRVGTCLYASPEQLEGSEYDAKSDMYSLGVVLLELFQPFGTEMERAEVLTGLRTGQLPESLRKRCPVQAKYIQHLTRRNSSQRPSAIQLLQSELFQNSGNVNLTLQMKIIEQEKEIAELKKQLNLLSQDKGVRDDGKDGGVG

[11] = biological target: EGFR(L747-E749del, A750P) (Homo sapiens (Human), UniProt P00533, A750P/DEL747-749)
[12] = biological target: JAK2(JH1domain-catalytic) (Homo sapiens (Human), UniProt O60674)
[13] = biological target: YANK3 (Homo sapiens (Human), UniProt Q86UX6)
[14] = biological target: ABL1-nonphosphorylated (Homo sapiens (Human), UniProt P00519)
[15] = biological target: PIK3CB (Homo sapiens (Human), UniProt P42338)
[16] = biological target: OSR1 (Homo sapiens (Human), UniProt O95747)
[17] = biological target: MST1R (Homo sapiens (Human), UniProt Q04912)
[18] = biological target: MYLK (Homo sapiens (Human), UniProt Q15746)
[19] = biological target: PFTK1 (Homo sapiens (Human), UniProt O94921)
[20] = biological target: MAP3K4 (Homo sapiens (Human), UniProt Q9Y6R4)
Sequence of MAP3K4 (Q9Y6R4 whole entry): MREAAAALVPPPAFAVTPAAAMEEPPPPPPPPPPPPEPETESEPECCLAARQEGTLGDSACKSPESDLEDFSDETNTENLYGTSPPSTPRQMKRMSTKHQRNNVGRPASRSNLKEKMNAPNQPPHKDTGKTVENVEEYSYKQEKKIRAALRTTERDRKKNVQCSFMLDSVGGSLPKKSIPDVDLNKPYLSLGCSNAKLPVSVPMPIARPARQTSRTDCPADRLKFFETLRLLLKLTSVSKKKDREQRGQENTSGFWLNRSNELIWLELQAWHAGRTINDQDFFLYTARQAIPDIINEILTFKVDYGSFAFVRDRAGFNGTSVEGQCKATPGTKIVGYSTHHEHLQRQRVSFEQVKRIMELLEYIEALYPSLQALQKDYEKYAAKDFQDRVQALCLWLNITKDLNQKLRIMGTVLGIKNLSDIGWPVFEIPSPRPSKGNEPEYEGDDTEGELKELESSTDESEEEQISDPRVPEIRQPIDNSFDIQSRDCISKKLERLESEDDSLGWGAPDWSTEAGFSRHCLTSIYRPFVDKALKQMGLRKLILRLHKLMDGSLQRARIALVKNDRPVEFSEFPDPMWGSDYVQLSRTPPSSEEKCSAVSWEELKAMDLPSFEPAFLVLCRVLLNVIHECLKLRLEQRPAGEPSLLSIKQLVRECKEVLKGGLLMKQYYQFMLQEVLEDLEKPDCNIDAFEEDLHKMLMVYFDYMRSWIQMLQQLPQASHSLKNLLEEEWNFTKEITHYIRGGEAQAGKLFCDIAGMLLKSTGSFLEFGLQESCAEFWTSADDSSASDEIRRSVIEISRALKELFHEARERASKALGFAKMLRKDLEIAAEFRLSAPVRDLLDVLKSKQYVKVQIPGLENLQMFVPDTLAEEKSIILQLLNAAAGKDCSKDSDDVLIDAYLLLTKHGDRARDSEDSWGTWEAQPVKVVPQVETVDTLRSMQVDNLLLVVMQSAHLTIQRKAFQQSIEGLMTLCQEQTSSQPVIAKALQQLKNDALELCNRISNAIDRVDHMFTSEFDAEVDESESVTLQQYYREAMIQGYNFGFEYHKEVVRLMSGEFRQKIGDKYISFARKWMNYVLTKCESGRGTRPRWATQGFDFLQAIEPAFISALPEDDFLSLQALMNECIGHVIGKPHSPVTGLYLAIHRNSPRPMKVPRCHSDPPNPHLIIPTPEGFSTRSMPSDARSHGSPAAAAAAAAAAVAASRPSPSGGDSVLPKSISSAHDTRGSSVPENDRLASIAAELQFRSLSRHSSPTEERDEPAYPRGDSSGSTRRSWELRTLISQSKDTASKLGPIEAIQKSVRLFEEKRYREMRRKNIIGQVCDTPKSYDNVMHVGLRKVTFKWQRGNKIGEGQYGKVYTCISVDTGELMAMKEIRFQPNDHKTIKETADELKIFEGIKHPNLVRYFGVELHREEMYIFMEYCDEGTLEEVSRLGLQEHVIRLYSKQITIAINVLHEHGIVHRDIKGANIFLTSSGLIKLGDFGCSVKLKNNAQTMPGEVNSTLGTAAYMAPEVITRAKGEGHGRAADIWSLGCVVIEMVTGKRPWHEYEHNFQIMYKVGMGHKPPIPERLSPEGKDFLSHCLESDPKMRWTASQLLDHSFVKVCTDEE

[21] = biological target: YSK1 (Homo sapiens (Human), UniProt O00506)
[22] = biological target: PIM2 (Homo sapiens (Human), UniProt Q9P1W9)
[23] = biological target: LYN (Homo sapiens (Human), UniProt P07948)
Sequence of LYN (P07948 whole entry): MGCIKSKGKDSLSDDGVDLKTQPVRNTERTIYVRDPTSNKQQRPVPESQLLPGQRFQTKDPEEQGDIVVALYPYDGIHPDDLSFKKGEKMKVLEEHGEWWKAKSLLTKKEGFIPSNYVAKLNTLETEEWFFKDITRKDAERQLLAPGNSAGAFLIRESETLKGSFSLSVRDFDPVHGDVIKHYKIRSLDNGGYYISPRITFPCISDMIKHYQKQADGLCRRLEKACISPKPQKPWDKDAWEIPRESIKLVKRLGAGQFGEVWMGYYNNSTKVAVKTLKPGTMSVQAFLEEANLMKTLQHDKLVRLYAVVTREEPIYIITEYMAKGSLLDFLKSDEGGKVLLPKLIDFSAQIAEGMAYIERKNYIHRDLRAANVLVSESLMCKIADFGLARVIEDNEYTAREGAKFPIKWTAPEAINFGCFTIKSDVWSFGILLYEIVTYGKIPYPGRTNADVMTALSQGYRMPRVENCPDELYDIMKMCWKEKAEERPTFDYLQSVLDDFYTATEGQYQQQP

[24] = biological target: RSK3(Kin.Dom.2-C-terminal) (Homo sapiens (Human), UniProt Q15349)
Sequence of RSK3(Kin.Dom.2-C-terminal) (Q15349 415-672): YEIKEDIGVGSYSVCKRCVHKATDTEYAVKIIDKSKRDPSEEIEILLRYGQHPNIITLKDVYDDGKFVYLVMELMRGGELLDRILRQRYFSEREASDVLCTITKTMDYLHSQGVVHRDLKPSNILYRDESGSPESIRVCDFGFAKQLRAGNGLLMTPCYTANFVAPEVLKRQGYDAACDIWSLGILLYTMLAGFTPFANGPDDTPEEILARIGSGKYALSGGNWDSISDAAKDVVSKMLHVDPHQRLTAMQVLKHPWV

[25] = biological target: RIPK2 (Homo sapiens (Human), UniProt O43353)
[26] = biological target: DRAK2 (Homo sapiens (Human), UniProt O94768)
[27] = biological target: NEK4 (Homo sapiens (Human), UniProt P51957)
Sequence of NEK4 (P51957 whole entry): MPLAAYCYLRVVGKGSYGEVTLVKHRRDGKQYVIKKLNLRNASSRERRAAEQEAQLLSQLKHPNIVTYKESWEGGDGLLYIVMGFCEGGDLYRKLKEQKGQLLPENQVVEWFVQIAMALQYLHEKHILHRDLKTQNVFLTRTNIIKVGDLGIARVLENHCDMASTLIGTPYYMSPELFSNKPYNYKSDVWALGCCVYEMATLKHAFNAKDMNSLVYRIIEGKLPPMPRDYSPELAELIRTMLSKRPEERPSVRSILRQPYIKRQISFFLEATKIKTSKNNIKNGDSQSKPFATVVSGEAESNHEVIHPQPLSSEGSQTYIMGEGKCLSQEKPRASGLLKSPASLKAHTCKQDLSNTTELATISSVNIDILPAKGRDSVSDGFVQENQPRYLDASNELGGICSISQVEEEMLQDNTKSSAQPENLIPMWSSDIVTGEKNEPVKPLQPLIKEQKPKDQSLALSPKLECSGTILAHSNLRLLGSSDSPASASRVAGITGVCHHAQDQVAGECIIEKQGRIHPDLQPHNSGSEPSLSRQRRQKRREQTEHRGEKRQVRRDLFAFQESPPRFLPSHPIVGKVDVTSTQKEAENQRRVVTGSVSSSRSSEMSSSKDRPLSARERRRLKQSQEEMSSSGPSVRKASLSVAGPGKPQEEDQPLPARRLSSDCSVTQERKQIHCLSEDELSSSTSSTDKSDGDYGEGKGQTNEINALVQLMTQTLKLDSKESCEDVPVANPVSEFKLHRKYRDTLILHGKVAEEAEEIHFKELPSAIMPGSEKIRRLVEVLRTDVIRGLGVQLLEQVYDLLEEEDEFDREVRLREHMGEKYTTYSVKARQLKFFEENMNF

[28] = biological target: MAP3K15 (Homo sapiens (Human), UniProt Q6ZN16)

For `CN(C[C@H](Cc1ccccc1)OP(=O)(O)O)C(=O)c1cncc(C#Cc2cnn(C(F)F)c2)c1` [Example 19, (S)-1-(5-((1-(difluoromethyl)-1H-pyrazol-4-yl)ethynyl)-N-methylnicotinamido)-3-phenylpropan-2-yl dihydrogen phosphate], the remaining activity at 0.1 µM [1] was 71%, the remaining activity at 0.1 µM [2] was 100% and the remaining activity at 0.1 µM [3] was 95%. For the same compound, the remaining activity at 0.1 µM [4] was 85%, the remaining activity at 0.1 µM [5] was 100% and the remaining activity at 0.1 µM [6] was 93%. The remaining activity at 0.1 µM [7] was 100%, the remaining activity at 0.1 µM [8] was 97% and the remaining activity at 0.1 µM [9] was 98%. The remaining activity at 0.1 µM [10] was 96%, the remaining activity at 0.1 µM [11] was 84% and the remaining activity at 0.1 µM [12] was 100%. The remaining activity at 0.1 µM [13] was 54%, the remaining activity at 0.1 µM [14] was 96% and the remaining activity at 0.1 µM [15] was 95%. The remaining activity at 0.1 µM [16] was 89%, the remaining activity at 0.1 µM [17] was 92% and the remaining activity at 0.1 µM [18] was 86%. The remaining activity at 0.1 µM [19] was 100%, the remaining activity at 0.1 µM [20] was 100% and the remaining activity at 0.1 µM [21] was 97%. For the same compound, the remaining activity at 0.1 µM [22] was 100%, the remaining activity at 0.1 µM [23] was 80% and the remaining activity at 0.1 µM [24] was 100%. For the same compound, the remaining activity at 0.1 µM [25] was 100%, the remaining activity at 0.1 µM [26] was 100% and the remaining activity at 0.1 µM [27] was 100%. It also gave a remaining activity at 0.1 µM [28] of 97%.

For `CN(C[C@@H](O)Cc1ccccc1)C(=O)c1cncc(C#Cc2cnn(C(F)F)c2)c1` [Example 2, (S)-5-((1-(difluoromethyl)-1H-pyrazol-4-yl)ethynyl)-N-(2-hydroxy-3-phenylpropyl)-N-methylnicotinamide], the remaining activity at 0.1 µM ([1]; PIK3CA(H1047L)) was 85%, the remaining activity at 0.1 µM ([2]; PRKG1) was 92% and the remaining activity at 0.1 µM ([3]; S6K1) was 95%. It also gave a remaining activity at 0.1 µM ([4]; PIK3CD) of 99%, a remaining activity at 0.1 µM ([5]; AKT3) of 100% and a remaining activity at 0.1 µM ([6]; SGK2) of 100%. For the same compound, the remaining activity at 0.1 µM ([7]; PRKX) was 100%, the remaining activity at 0.1 µM ([8]; p38-beta) was 100% and the remaining activity at 0.1 µM ([9]; ZAP70) was 98%. The remaining activity at 0.1 µM ([10]; EIF2AK1) was 100%, the remaining activity at 0.1 µM ([11]; EGFR(L747-E749del, A750P)) was 100% and the remaining activity at 0.1 µM ([12]; JAK2(JH1domain-catalytic)) was 100%. The remaining activity at 0.1 µM ([13]; YANK3) was 67%, the remaining activity at 0.1 µM ([14]; ABL1-nonphosphorylated) was 72% and the remaining activity at 0.1 µM ([15]; PIK3CB) was 100%. It also gave a remaining activity at 0.1 µM ([16]; OSR1) of 88%, a remaining activity at 0.1 µM ([17]; MST1R) of 98% and a remaining activity at 0.1 µM ([18]; MYLK) of 87%. It also gave a remaining activity at 0.1 µM ([19]; PFTK1) of 100%, a remaining activity at 0.1 µM ([20]; MAP3K4) of 100% and a remaining activity at 0.1 µM ([21]; YSK1) of 100%. It also gave a remaining activity at 0.1 µM ([22]; PIM2) of 95%, a remaining activity at 0.1 µM ([23]; LYN) of 71% and a remaining activity at 0.1 µM ([24]; RSK3(Kin.Dom.2-C-terminal)) of 100%. It also gave a remaining activity at 0.1 µM ([25]; RIPK2) of 100%, a remaining activity at 0.1 µM ([26]; DRAK2) of 100% and a remaining activity at 0.1 µM ([27]; NEK4) of 100%. For the same compound, the remaining activity at 0.1 µM ([28]; MAP3K15) was 100%.
